Experimental data: the supplement of paper PMC10307832

Experiments:
Assay in all cases: relative viability (nuclei count vs DMSO), 5 days (fraction); higher = more cells survive
ABC-1 = test system: ABC-1
How it was run: (§1)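 Lung cancer cell lines in 1536-well plates were dosed by pin tool the day after seeding, either with one drug alone or with a fixed anchor-drug dose plus five library-drug doses (not always all listed) in √10 steps. After 5 days, cells were fixed and their nuclei stained in one step (final 0.05% Triton X-100, 1% formaldehyde, 1 ug/ml Hoechst), then counted on 4× images. Relative viability is the nuclei count in treated wells divided by that in vehicle wells. Values are medians of duplicate plates.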

NCI-H2085 = test system: NCI-H2085
How it was run: as §1

NCI-H1299 = test system: NCI-H1299
How it was run: as §1

RERF-LC-KJ = test system: RERF-LC-KJ
How it was run: as §1

EBC-1 = test system: EBC-1
How it was run: as §1

HCC-44 = test system: HCC-44
How it was run: as §1

NCI-H1703 = test system: NCI-H1703
How it was run: as §1

Calu-6 = test system: Calu-6
How it was run: as §1

NCI-H2126 = test system: NCI-H2126
How it was run: as §1

EKVX = test system: EKVX
How it was run: as §1

A549 = test system: A549
How it was run: as §1

NCI-H1993 = test system: NCI-H1993
How it was run: as §1

IA-LM = test system: IA-LM
How it was run: as §1

O=c1cc(-c2cccc3c2Sc2ccccc2S3)oc(N2CCOCC2)c1 + Cc1nc(NC(=O)N2CCC[C@H]2C(N)=O)sc1-c1ccnc(C(C)(C)C(F)(F)F)c1 [Alpelisib] (partner 2 µM)
relative viability (ABC-1; first compound 0.08 µM): 1.17
relative viability (ABC-1; first compound 0.253 µM): 1.14
relative viability (ABC-1; first compound 0.8 µM): 1.16
relative viability (ABC-1; first compound 2.53 µM): 0.901
relative viability (ABC-1; first compound 8 µM): 0.953
relative viability (NCI-H2085; first compound 0.08 µM): 0.907
relative viability (NCI-H2085; first compound 0.253 µM): 0.93
relative viability (NCI-H2085; first compound 0.8 µM): 1.05
relative viability (NCI-H2085; first compound 2.53 µM): 0.779
relative viability (NCI-H2085; first compound 8 µM): 0.72
relative viability (NCI-H1299; first compound 0.08 µM): 1.03
relative viability (NCI-H1299; first compound 0.253 µM): 1.09
relative viability (NCI-H1299; first compound 0.8 µM): 1.13
relative viability (NCI-H1299; first compound 2.53 µM): 1.03
relative viability (NCI-H1299; first compound 8 µM): 1.08
relative viability (RERF-LC-KJ; first compound 0.08 µM): 0.83
relative viability (RERF-LC-KJ; first compound 0.253 µM): 0.917
relative viability (RERF-LC-KJ; first compound 0.8 µM): 0.824
relative viability (RERF-LC-KJ; first compound 2.53 µM): 0.741
relative viability (RERF-LC-KJ; first compound 8 µM): 0.939
relative viability (EBC-1; first compound 0.08 µM): 0.792
relative viability (EBC-1; first compound 0.253 µM): 1.03
relative viability (EBC-1; first compound 0.8 µM): 0.816
relative viability (EBC-1; first compound 2.53 µM): 0.755
relative viability (EBC-1; first compound 8 µM): 0.522
relative viability (HCC-44; first compound 0.08 µM): 0.811
relative viability (HCC-44; first compound 0.253 µM): 0.904
relative viability (HCC-44; first compound 0.8 µM): 0.689
relative viability (HCC-44; first compound 2.53 µM): 0.685
relative viability (HCC-44; first compound 8 µM): 0.753
relative viability (NCI-H1703; first compound 0.253 µM): 0.459
relative viability (NCI-H1703; first compound 0.8 µM): 0.296
relative viability (NCI-H1703; first compound 2.53 µM): 0.245
relative viability (NCI-H1703; first compound 8 µM): 0.295
relative viability (Calu-6; first compound 0.08 µM): 0.841
relative viability (Calu-6; first compound 0.253 µM): 1.12
relative viability (Calu-6; first compound 0.8 µM): 1
relative viability (Calu-6; first compound 2.53 µM): 0.923
relative viability (Calu-6; first compound 8 µM): 1.06
relative viability (NCI-H2126; first compound 0.08 µM): 0.827
relative viability (NCI-H2126; first compound 0.253 µM): 0.822
relative viability (NCI-H2126; first compound 0.8 µM): 0.734
relative viability (NCI-H2126; first compound 2.53 µM): 0.739
relative viability (NCI-H2126; first compound 8 µM): 0.735
relative viability (EKVX; first compound 0.08 µM): 1.05
relative viability (EKVX; first compound 0.253 µM): 0.963
relative viability (EKVX; first compound 0.8 µM): 0.805
relative viability (EKVX; first compound 2.53 µM): 1
relative viability (EKVX; first compound 8 µM): 0.755
relative viability (A549; first compound 0.08 µM): 0.738
relative viability (A549; first compound 0.253 µM): 0.958
relative viability (A549; first compound 0.8 µM): 0.857
relative viability (A549; first compound 2.53 µM): 0.659
relative viability (A549; first compound 8 µM): 0.653
relative viability (NCI-H1993; first compound 0.08 µM): 0.735
relative viability (NCI-H1993; first compound 0.253 µM): 0.687
relative viability (NCI-H1993; first compound 0.8 µM): 0.69
relative viability (NCI-H1993; first compound 2.53 µM): 0.68
relative viability (NCI-H1993; first compound 8 µM): 0.718
relative viability (IA-LM; first compound 0.08 µM): 0.664
relative viability (IA-LM; first compound 0.253 µM): 1.06
relative viability (IA-LM; first compound 0.8 µM): 0.852
relative viability (IA-LM; first compound 2.53 µM): 0.862
relative viability (IA-LM; first compound 8 µM): 0.677

COc1nc(C)cnc1NS(=O)(=O)c1cccnc1-c1ccc(-c2nnco2)cc1 [Zibotentan] + CS(=O)(=O)CCNCc1ccc(-c2ccc3ncnc(Nc4ccc(OCc5cccc(F)c5)c(Cl)c4)c3c2)o1 [Lapatinib] (partner 2 µM)
relative viability (ABC-1; first compound 0.08 µM): 1.28
relative viability (ABC-1; first compound 0.253 µM): 0.885
relative viability (ABC-1; first compound 0.8 µM): 0.971
relative viability (ABC-1; first compound 2.53 µM): 1.28
relative viability (NCI-H2085; first compound 0.08 µM): 0.796
relative viability (NCI-H2085; first compound 0.253 µM): 0.837
relative viability (NCI-H2085; first compound 0.8 µM): 0.764
relative viability (NCI-H2085; first compound 2.53 µM): 0.95
relative viability (NCI-H1299; first compound 0.08 µM): 0.989
relative viability (NCI-H1299; first compound 0.253 µM): 0.906
relative viability (NCI-H1299; first compound 0.8 µM): 0.959
relative viability (NCI-H1299; first compound 2.53 µM): 0.928
relative viability (RERF-LC-KJ; first compound 0.08 µM): 0.89
relative viability (RERF-LC-KJ; first compound 0.253 µM): 0.807
relative viability (RERF-LC-KJ; first compound 0.8 µM): 0.878
relative viability (RERF-LC-KJ; first compound 2.53 µM): 0.845
relative viability (EBC-1; first compound 0.08 µM): 0.235
relative viability (EBC-1; first compound 0.253 µM): 0.222
relative viability (EBC-1; first compound 0.8 µM): 0.222
relative viability (EBC-1; first compound 2.53 µM): 0.2
relative viability (HCC-44; first compound 0.08 µM): 1.02
relative viability (HCC-44; first compound 0.253 µM): 1.01
relative viability (HCC-44; first compound 0.8 µM): 1.08
relative viability (HCC-44; first compound 2.53 µM): 1.04
relative viability (NCI-H1703; first compound 0.08 µM): 0.968
relative viability (NCI-H1703; first compound 0.253 µM): 0.894
relative viability (NCI-H1703; first compound 0.8 µM): 1.24
relative viability (NCI-H1703; first compound 2.53 µM): 0.511
relative viability (Calu-6; first compound 0.08 µM): 1.02
relative viability (Calu-6; first compound 0.253 µM): 1.06
relative viability (Calu-6; first compound 0.8 µM): 1.16
relative viability (Calu-6; first compound 2.53 µM): 1.14
relative viability (NCI-H2126; first compound 0.08 µM): 0.79
relative viability (NCI-H2126; first compound 0.253 µM): 0.724
relative viability (NCI-H2126; first compound 0.8 µM): 0.662
relative viability (NCI-H2126; first compound 2.53 µM): 0.779
relative viability (EKVX; first compound 0.08 µM): 0.184
relative viability (EKVX; first compound 0.253 µM): 0.216
relative viability (EKVX; first compound 0.8 µM): 0.194
relative viability (EKVX; first compound 2.53 µM): 0.198
relative viability (A549; first compound 0.08 µM): 1.03
relative viability (A549; first compound 0.253 µM): 1.01
relative viability (A549; first compound 0.8 µM): 1.05
relative viability (A549; first compound 2.53 µM): 1.12
relative viability (NCI-H1993; first compound 0.253 µM): 0.792
relative viability (NCI-H1993; first compound 0.8 µM): 0.88
relative viability (NCI-H1993; first compound 2.53 µM): 0.768
relative viability (IA-LM; first compound 0.08 µM): 0.68
relative viability (IA-LM; first compound 0.253 µM): 0.808
relative viability (IA-LM; first compound 0.8 µM): 0.9
relative viability (IA-LM; first compound 2.53 µM): 0.847
